Laboratory results published in the supplement of paper PMC11061612.

How the values were obtained:
Test in all cases: combination Emax (second highest fraction inhibited in the dose matrix, 72 h); higher = more inhibition; extreme values may be limits of the assay
Saos-2 (Osteosarcoma) = test system: Saos-2 (Osteosarcoma)
Summary of the method: (§1)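 Cell lines in DMEM/F12 or RPMI with 10% FBS were plated in 1536-well plates, held 24 hours at 37°C, 5% CO2, then given two-drug dose matrices for 72 hours (DMSO typically 0.2%). Viability was read by CellTiter-Glo 2.0 luminescence and scaled as inhibition from 0 (vehicle wells) to 1 (blank wells). Combination Emax is the second-highest inhibition in the matrix; Bliss excess is observed combination effect minus expected EA + EB − EA·EB, EA and EB being single-agent effects.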

[1] = test system: SW48 (Colorectal Carcinoma)
Summary of the method: as §1

[2] = test system: 647-V (Bladder Carcinoma)
Summary of the method: as §1

[3] = test system: TYK-nu (Ovarian Carcinoma)
Summary of the method: as §1

MCF7 (Breast Carcinoma) = test system: MCF7 (Breast Carcinoma)
Summary of the method: as §1

[4] = test system: ETK-1 (Biliary Tract Carcinoma)
Summary of the method: as §1

[5] = test system: SK-UT-1 (Other Solid Carcinomas)
Summary of the method: as §1

[6] = test system: SKN-3 (Head and Neck Carcinoma)
Summary of the method: as §1

EW-22 (Ewing's Sarcoma) = test system: EW-22 (Ewing's Sarcoma)
Summary of the method: as §1

[7] = test system: CAL-39 (Other Solid Carcinomas)
Summary of the method: as §1

[8] = test system: DOK (Oral Cavity Carcinoma)
Summary of the method: as §1

[9] = test system: YT (Other Blood Carcinomas)
Summary of the method: as §1

H4 (Low Grade Glioma) = test system: H4 (Low Grade Glioma)
Summary of the method: as §1

[10] = test system: EKVX (Non-Small Cell Lung Carcinoma)
Summary of the method: as §1

[11] = test system: SW948 (Colorectal Carcinoma)
Summary of the method: as §1

[12] = test system: SNG-M (Endometrial Carcinoma)
Summary of the method: as §1

D-392MG (Glioblastoma) = test system: D-392MG (Glioblastoma)
Summary of the method: as §1

[13] = test system: SNU-61 (Colorectal Carcinoma)
Summary of the method: as §1

[14] = test system: WSU-DLCL2 (B-Cell Non-Hodgkin's Lymphoma)
Summary of the method: as §1

CS1 (Chondrosarcoma) = test system: CS1 (Chondrosarcoma)
Summary of the method: as §1

Row | SMILES | combination Emax (Saos-2 (Osteosarcoma)) | combination Emax [1] | combination Emax [2] | combination Emax [3] | combination Emax (MCF7 (Breast Carcinoma)) | combination Emax [4] | combination Emax [5] | combination Emax [6] | combination Emax (EW-22 (Ewing's Sarcoma)) | combination Emax [7] | combination Emax [8] | combination Emax [9] | combination Emax (H4 (Low Grade Glioma)) | combination Emax [10] | combination Emax [11] | combination Emax [12] | combination Emax (D-392MG (Glioblastoma)) | combination Emax [13] | combination Emax [14] | combination Emax (CS1 (Chondrosarcoma))
1 | Cc1c2c(nn1C)CSCc1cc(n(C)n1)CSc1cc(c3ccccc3c1)OCCCc1c(C(=O)O)n(C)c3c-2c(Cl)ccc13 [AZD5991] + CN(C)CCCOc1ccc(-c2ccc3ncc4c(c3c2)n(C2CCOCC2)c(=O)n4C)cn1 [AZD0156] (first compound max 1 µM, 7x7, partner max 1 µM) | 0.239 | 0.216 | 0.878 | 0.397 | 0.612 | 0.26 | 0.245 | 0.339 | 0.512 | 0.515 | 0.331 | 1 | 0.448 | 0.239 | 0.296 | 0.209 | 0.252 | 0.196 | 1 | 0.235
2 | CN(CCO)CC[C@H](CSc1ccccc1)Nc1ccc(S(=O)(=O)NC(=O)c2ccc(N3CCC([C@@H](O)c4ccccc4-c4ccc(Cl)cc4)CC3)cc2)cc1S(=O)(=O)C(F)(F)F [AZD4320] + C1CN(CCC1(C(=O)N[C@@H](CCO)C2=CC=C(C=C2)Cl)N)C3=NC=NC4=C3C=CN4 [Capivasertib] (first compound max 1 µM, 7x7, partner max 3 µM) | 0.399 | 0.732 | 0.147 | 0.244 | 0.279 | 0.175 | 0.226 | 0.062 | 0.851 | 0.286 | 0.39 | 0.212 | 0.404 | 0.269 | 0.624 | 0.528 | 0.189 | 0.053 | 1 | 0.491
3 | Cc1c2c(nn1C)CSCc1cc(n(C)n1)CSc1cc(c3ccccc3c1)OCCCc1c(C(=O)O)n(C)c3c-2c(Cl)ccc13 [AZD5991] + Cn1cnc2c(F)c(Nc3ccc(Br)cc3Cl)c(C(=O)NOCCO)cc21 [Selumetinib] (first compound max 1 µM, 7x7, partner max 3 µM) | 0.247 | 0.565 | 0.91 | 0.513 | 0.559 | 0.311 | 0.164 | 0.387 | 0.566 | 0.874 | 0.903 | 1 | 0.456 | 0.348 | 0.69 | 0.233 | 0.364 | 0.464 | 1 | 0.224
4 | COc1cc2c(cc1OCCCCCOc1cc3c(cc1OC)C(=O)N1C=C(C)C[C@H]1C=N3)N=C[C@@H]1CC(C)=CN1C2=O [SG3199] + O=C(c1cc(Cc2n[nH]c(=O)c3ccccc23)ccc1F)N1CCN(C(=O)C2CC2)CC1 [Olaparib] (first compound max 0.001 µM, 7x7, partner max 10 µM) | 0.125 | 0.0699 | 0.276 | 0.369 | 0.106 | 0.188 | 0.046 | 0.0527 | 0.894 | 0.0869 | 0.121 | 0.25 | 0.505 | 0.0945 | 0.185 | 0.159 | 0.111 | 0.0451 | 0.127 | 0.178
5 | CC1(C)CCC(CN2CCN(c3ccc(C(=O)NS(=O)(=O)c4ccc(NCC5CCOCC5)c([N+](=O)[O-])c4)c(Oc4cnc5[nH]ccc5c4)c3)CC2)=C(c2ccc(Cl)cc2)C1 [Venetoclax] + CCN(CCO)CCCOc1ccc2c(Nc3cc(CC(=O)Nc4cccc(F)c4)[nH]n3)ncnc2c1 [AZD2811] (first compound max 1 µM, 7x7, partner max 1 µM) | 0.648 | 0.958 | 0.245 | 0.247 | 0.31 | 0.259 | 0.561 | 0.19 | 0.924 | 0.285 | 0.313 | 0.344 | 0.583 | 0.178 | 0.799 | 0.278 | 0.217 | 0.168 | 0.758 | 0.434
6 | COc1cccc(OCCCN)c1-c1cc(Nc2cnc(C#N)cn2)n[nH]1 [Prexasertib] + C=CCn1c(=O)c2cnc(Nc3ccc(N4CCN(C)CC4)cc3)nc2n1-c1cccc(C(C)(C)O)n1 [AZD1775] (first compound max 1 µM, partner max 1 µM) | 0.935 | 0.834 | 0.925 | 0.748 | 0.658 | 0.666 | 0.967 | 0.771 | 0.866 | 0.694 | 0.685 | 0.971 | 0.979 | 0.287 | 0.896 | 0.985 | 0.66 | 0.515 | 1 | 0.735
7 | CN(CCO)CC[C@H](CSc1ccccc1)Nc1ccc(S(=O)(=O)NC(=O)c2ccc(N3CCC([C@@H](O)c4ccccc4-c4ccc(Cl)cc4)CC3)cc2)cc1S(=O)(=O)C(F)(F)F [AZD4320] + Cn1cnc2c(F)c(Nc3ccc(Br)cc3Cl)c(C(=O)NOCCO)cc21 [Selumetinib] (first compound max 1 µM, 7x7, partner max 3 µM) | 0.517 | 0.914 | 0.971 | 0.619 | 0.402 | 0.3 | 0.345 | 0.355 | 1 | 0.604 | 0.562 | 0.737 | 0.418 | 0.314 | 0.79 | 0.526 | 0.483 | 0.512 | 0.959 | 0.847
8 | COc1cccc(OCCCN)c1-c1cc(Nc2cnc(C#N)cn2)n[nH]1 [Prexasertib] + Cc1cc2ncnn2cc1Nc1ncc2c(n1)n(C1CCOCC1)c(=O)n2C [AZD7648] (first compound max 1 µM, 7x7, partner max 10 µM) | 0.662 | 0.728 | 0.757 | 0.739 | 0.682 | 0.595 | 0.957 | 0.606 | 0.89 | 0.328 | 0.499 | 0.928 | 0.874 | 0.276 | 0.812 | 0.954 | 0.519 | 0.466 | 1 | 0.727
9 | CC1(C)CCC(CN2CCN(c3ccc(C(=O)NS(=O)(=O)c4ccc(NCC5CCOCC5)c([N+](=O)[O-])c4)c(Oc4cnc5[nH]ccc5c4)c3)CC2)=C(c2ccc(Cl)cc2)C1 [Venetoclax] + Cn1cnc2c(F)c(Nc3ccc(Br)cc3Cl)c(C(=O)NOCCO)cc21 [Selumetinib] (first compound max 1 µM, 7x7, partner max 3 µM) | 0.299 | 0.52 | 0.133 | 0.464 | 0.104 | 0.165 | 0.221 | 0.286 | 0.855 | 0.535 | 0.407 | 0.429 | 0.232 | 0.343 | 0.577 | 0.2 | 0.161 | 0.351 | 0.375 | 0.278
10 | Cc1c2c(nn1C)CSCc1cc(n(C)n1)CSc1cc(c3ccccc3c1)OCCCc1c(C(=O)O)n(C)c3c-2c(Cl)ccc13 [AZD5991] + C[C@@H]1COCCN1C2=NC(=NC(=C2)C3(CC3)[S@](=N)(=O)C)C4=C5C=CNC5=NC=C4 [AZD6738] (first compound max 1 µM, 7x7, partner max 10 µM) | 0.6 | 0.739 | 0.92 | 0.74 | 0.776 | 0.658 | 0.801 | 0.687 | 0.921 | 0.645 | 0.633 | 1 | 0.813 | 0.29 | 0.563 | 0.88 | 0.427 | 0.349 | 1 | 0.591
11 | Cc1c2c(nn1C)CSCc1cc(n(C)n1)CSc1cc(c3ccccc3c1)OCCCc1c(C(=O)O)n(C)c3c-2c(Cl)ccc13 [AZD5991] + Cc1cc2ncnn2cc1Nc1ncc2c(n1)n(C1CCOCC1)c(=O)n2C [AZD7648] (first compound max 1 µM, 7x7, partner max 10 µM) | 0.285 | 0.33 | 0.719 | 0.412 | 0.665 | 0.294 | 0.282 | 0.179 | 0.504 | 0.58 | 0.421 | 1 | 0.378 | 0.303 | 0.436 | 0.299 | 0.271 | 0.19 | 1 | 0.207
12 | Cc1c2c(nn1C)CSCc1cc(n(C)n1)CSc1cc(c3ccccc3c1)OCCCc1c(C(=O)O)n(C)c3c-2c(Cl)ccc13 [AZD5991] + C[C@@H](Nc1cc(F)cc(F)c1)c1cc(C(=O)N(C)C)cc2c(=O)cc(N3CCOCC3)oc12 [AZD8186] (first compound max 1 µM, 7x7, partner max 3 µM) | 0.491 | 0.387 | 0.802 | 0.254 | 0.71 | 0.306 | 0.188 | 0.31 | 0.491 | 0.704 | 0.459 | 1 | 0.656 | 0.29 | 0.345 | 0.311 | 0.301 | 0.168 | 1 | 0.235
